In publication PMC5642494 (Oncotarget, 2017):
Read-outs that look alike come from different tables or passages of the source.

Columns and labels:
[1] = system: MCF7 cells; assay: PI high content imaging of G1 arrest and cell proliferation, MCF7; assay type: cell-based; conditions: Homo sapiens
Experimental: Relative IC50/EC50 values were determined by curve fitting to a four parameter logistic equation: Y = bottom + ((top-bottom)/ (1+exp(HillSlope*(X – LnIC50)), where X is the natural log of dose/concentration, Y is response, decreasing as X increases, top and bottom are plateaus in the same units as Y, lnIC50 is the natural log of potency, in the same log units as X, and HillSlope measures the steepness of the curve. Data were plotted using GraphPad Prism. […]
Preclinical characterization of abemaciclib in hormone receptor […]
METHODS High content imaging cell-based assays for monitoring phosphorylation of Rb (ser780), G1 arrest and […]
ATP at 20°C by a secondary goat anti-mouse IgG-Alexa Fluor 488 in a 96-well plate filtration assay format. […] Plates were read in an kinase buffer containing 68 mM Hepes at pH 7.5, 6.67 mM Acumen Explorer eX3 (TTP Labtech). […] 10µL of CDK6/cyclin corresponding to 500-530 nm and the percentage of D3 enzyme complex (Millipore 14-519, #D13BP009NA) cells with pRb signal relative to the total PI stained (1 nM final concentration in the assay) was added onto subpopulation was calculated by the instrument’s software a mix of substrate and test compound. […]
(EDTA) was used to determine the level of background evaluated by measuring PI signal using high content 33P in the absence of enzyme activity. […]

[2] = system: FOXM1; assay: FOXM1 protein expression, EFM-19; assay type: cell-based; conditions: Homo sapiens, 1 DT, read-out: IC50 reduction in FOXM1 positive cells
Experimental: Relative IC50/EC50 values were determined by curve fitting to a four parameter logistic equation: Y = bottom + ((top-bottom)/ (1+exp(HillSlope*(X – LnIC50)), where X is the natural log of dose/concentration, Y is response, decreasing as X increases, top and bottom are plateaus in the same units as Y, lnIC50 is the natural log of potency, in the same log units as X, and HillSlope measures the steepness of the curve. Data were plotted using GraphPad Prism.
After 72 hours, cells were stained with an anti-FOXM1 antibody and a secondary goat anti-rabbit IgG, Alexa Fluor® 488 conjugate; nuclei were stained with propidium iodide (PI). Alternatively, for assessment of Ki-67 levels, cells were treated for 2 DT and then stained with Ki-67 and a secondary goat anti-rabbit IgG, Alexa Fluor® 488 conjugate. Plates were read in an Acumen Explorer Ex3 (TTP Labtech) using Cellista software and the percentages of FOXM1 positive and Ki-67 positive cells were calculated over the background signal. Data were normalized in Excel using the mean value obtained from treatment with 2 µM BEZ235 as the minimum and the mean value obtained from treatment with 0.2% DMSO as the maximum.

- IC50 ([1]; n = 2, read-out: IC50 2n (G1 arrest)): 54 ± 16 nM
- IC50 ([1]; n = 2, read-out: IC50 Cell number): 369 ± 370 nM
- IC50 [2]: 8 nM
SMILES: CCN1CCN(Cc2ccc(Nc3ncc(F)c(-c4cc(F)c5nc(C)n(C(C)C)c5c4)n3)nc2)CC1 [abemaciclib, Abemaciclib]
